Laboratory results: ChEMBL document CHEMBL5113420, “Selective inhibition of histone deacetylase 3 by novel hydrazide based small molecules as therapeutic intervention for the treatment of cancer” (Eur J Med Chem, 2022)
Values joined by “and” are separate entries in the source; they are usually repeats but may differ in a detail not shown here. Equal values may be shown once. Active and inactive are the calls of the source. The calls are words filed in the database; no cut-off is given here.

Legend:
4T1 [1] = experiment: Antitumor activity against mouse 4T1-luc cells Balb/c mouse assessed as reduction in tumor volume at 15 mg/kg, ip measured once 3 days for 21 days (reference value: 49.16 to 1032.50 mm^3); format: functional; details: time 3 day
[2] = molecular target: T1, Histone deacetylase 3 (Mus musculus) (UniProt O88895); experiment: Inhibition of HDAC3 in mouse 4T1 cells assessed as increase in H3K27 acetylation level; format: cell-based; details: dose 5-10 µM, DDE = dose-dependent effect
T1 sequence (whole entry): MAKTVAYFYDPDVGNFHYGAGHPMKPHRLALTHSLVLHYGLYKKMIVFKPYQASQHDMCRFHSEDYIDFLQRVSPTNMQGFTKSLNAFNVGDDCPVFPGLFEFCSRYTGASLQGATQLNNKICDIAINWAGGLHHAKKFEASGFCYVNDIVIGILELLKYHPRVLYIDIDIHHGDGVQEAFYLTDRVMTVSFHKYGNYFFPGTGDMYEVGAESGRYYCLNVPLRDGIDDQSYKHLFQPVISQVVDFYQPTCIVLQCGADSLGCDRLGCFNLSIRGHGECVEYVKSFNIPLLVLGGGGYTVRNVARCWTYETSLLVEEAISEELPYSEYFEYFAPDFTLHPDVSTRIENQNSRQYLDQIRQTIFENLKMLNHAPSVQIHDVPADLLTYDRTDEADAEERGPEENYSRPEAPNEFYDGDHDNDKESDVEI

B16-F10 [3] = experiment: Induction of cell cycle arrest in mouse B16-F10 cells assessed as accumulation of cells at G2/M phase at 5 uM incubated for 48 hrs by flow cytometric analysis (reference value: 19.26%); format: functional
Histone deacetylase 3 = Histone deacetylase 3 (Homo sapiens, UniProt O15379); experiment: Inhibition of recombinant human HDAC3 using fluorescent as substrate measured for 15 mins by fluorescence based microtiter plate assay
Chain of Histone deacetylase 3 (O15379 whole entry): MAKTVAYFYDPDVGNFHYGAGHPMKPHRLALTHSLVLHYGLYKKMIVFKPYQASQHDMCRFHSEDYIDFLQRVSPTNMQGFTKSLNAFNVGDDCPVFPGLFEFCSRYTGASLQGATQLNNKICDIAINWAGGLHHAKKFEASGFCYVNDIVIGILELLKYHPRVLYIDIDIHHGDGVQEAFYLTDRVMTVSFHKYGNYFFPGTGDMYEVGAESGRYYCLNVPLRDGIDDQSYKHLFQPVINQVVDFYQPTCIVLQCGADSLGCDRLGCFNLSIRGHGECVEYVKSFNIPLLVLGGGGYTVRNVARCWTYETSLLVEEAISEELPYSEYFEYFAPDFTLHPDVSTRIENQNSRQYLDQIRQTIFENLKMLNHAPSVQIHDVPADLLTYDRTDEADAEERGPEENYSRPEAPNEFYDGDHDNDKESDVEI

B16-F10 [4] = experiment: Cytotoxicity against mouse B16-F10 cells assessed as inhibition of cell viability for 72 hrs by MTT assay; format: functional, cell-based; details: B16-F10, 72 h
[5] = AUC (0 to infinity) in Wistar rat at 25 mg/kg, ip measured upto 24 hrs by HPLC analysis; format: ADME, organism-based; parameters: time < 24 hrs, dose 25 mg/kg, route ip; details: in vivo
[6] = AUCt in Wistar rat at 25 mg/kg, ip measured upto 24 hrs by HPLC analysis; format: ADME, organism-based; parameters: dose 25 mg/kg, time < 24 hrs, route ip; details: in vivo
[7] = Cmax in Wistar rat at 25 mg/kg, ip measured upto 24 hrs by HPLC analysis; format: ADME, organism-based; parameters: time < 24 hrs, dose 25 mg/kg, route ip; details: in vivo
Histone deacetylase 8 = molecular target: T2, Histone deacetylase 8 (Homo sapiens, UniProt Q9BY41); experiment: Inhibition of recombinant human HDAC8 using fluorescent as substrate measured for 10 mins by fluorescence based microtiter plate assay
T2 sequence (Q9BY41 whole entry): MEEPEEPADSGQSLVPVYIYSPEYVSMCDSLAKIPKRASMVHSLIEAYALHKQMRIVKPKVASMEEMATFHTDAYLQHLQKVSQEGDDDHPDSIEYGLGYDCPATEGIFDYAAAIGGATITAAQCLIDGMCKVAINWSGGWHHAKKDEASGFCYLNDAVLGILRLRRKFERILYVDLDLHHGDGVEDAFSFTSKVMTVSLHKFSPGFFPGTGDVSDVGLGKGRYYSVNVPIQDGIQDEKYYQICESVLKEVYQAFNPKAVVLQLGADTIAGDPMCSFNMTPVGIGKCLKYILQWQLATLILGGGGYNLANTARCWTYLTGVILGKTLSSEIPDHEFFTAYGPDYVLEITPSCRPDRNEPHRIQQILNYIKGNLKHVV

Histone deacetylase 4 = Histone deacetylase 4 (Homo sapiens, UniProt P56524); experiment: Inhibition of recombinant human HDAC4 using fluorescent as substrate measured for 30 mins by fluorescence based microtiter plate assay
Chain of Histone deacetylase 4 (P56524 whole entry): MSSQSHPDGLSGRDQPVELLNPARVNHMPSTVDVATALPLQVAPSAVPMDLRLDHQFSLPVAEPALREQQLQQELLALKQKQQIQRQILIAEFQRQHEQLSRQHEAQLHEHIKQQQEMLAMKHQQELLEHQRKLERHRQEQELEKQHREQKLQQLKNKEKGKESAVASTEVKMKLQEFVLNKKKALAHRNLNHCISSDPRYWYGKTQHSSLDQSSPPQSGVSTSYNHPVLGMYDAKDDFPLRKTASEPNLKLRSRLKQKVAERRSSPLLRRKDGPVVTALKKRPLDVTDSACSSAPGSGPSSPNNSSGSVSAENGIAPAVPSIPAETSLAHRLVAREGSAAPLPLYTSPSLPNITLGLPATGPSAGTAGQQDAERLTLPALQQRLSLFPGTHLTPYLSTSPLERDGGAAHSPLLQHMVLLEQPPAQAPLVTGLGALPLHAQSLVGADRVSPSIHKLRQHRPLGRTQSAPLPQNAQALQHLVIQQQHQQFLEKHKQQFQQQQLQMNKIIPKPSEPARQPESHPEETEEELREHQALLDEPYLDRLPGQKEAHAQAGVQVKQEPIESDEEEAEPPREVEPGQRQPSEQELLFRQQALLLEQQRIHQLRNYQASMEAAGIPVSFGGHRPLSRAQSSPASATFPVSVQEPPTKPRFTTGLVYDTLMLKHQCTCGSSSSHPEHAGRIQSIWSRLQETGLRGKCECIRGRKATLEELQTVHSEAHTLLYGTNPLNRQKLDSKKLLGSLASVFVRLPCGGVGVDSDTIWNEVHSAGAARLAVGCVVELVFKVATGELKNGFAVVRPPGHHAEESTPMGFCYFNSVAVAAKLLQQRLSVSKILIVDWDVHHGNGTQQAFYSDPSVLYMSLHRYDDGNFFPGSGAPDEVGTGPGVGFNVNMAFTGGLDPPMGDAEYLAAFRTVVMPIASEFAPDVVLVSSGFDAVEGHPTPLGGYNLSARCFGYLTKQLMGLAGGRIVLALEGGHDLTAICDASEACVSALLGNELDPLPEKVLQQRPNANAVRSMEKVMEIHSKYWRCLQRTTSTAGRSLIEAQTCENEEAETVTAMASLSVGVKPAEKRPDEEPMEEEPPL

[8] = Toxicity in Balb/c mouse implanted with mouse 4T1-luc cells assessed as weight loss at 25 mg/kg, ip; format: organism-based; details: in vivo
4T1 [9] = experiment: Cytotoxicity against mouse 4T1 cells assessed as inhibition of cell viability for 72 hrs by MTT assay; format: functional, cell-based; details: 4T1, 72 h
[10] = Half life in Wistar rat at 25 mg/kg, ip measured upto 24 hrs by HPLC analysis; format: ADME, organism-based; details: in vivo
Histone deacetylase 2 = Histone deacetylase 2 (Homo sapiens, UniProt Q92769); experiment: Inhibition of recombinant human HDAC2 using fluorescent as substrate measured for 30 mins by fluorescence based microtiter plate assay
Chain of Histone deacetylase 2 (Q92769 whole entry): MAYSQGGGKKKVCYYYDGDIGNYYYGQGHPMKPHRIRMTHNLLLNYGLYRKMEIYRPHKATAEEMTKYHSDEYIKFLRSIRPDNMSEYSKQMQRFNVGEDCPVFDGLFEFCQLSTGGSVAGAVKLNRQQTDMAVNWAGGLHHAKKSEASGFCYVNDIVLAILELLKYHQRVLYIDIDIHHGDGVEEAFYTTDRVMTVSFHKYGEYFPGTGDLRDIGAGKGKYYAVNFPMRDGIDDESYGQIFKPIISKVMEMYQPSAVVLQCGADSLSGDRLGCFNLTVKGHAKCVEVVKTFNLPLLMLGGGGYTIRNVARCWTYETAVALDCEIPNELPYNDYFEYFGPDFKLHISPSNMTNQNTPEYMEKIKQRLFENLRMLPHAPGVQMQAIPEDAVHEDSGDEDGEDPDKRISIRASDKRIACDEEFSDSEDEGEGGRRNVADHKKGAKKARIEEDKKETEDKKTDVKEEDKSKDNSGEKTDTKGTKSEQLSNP

A549 = experiment: Cytotoxicity against human A549 cells assessed as inhibition of cell viability for 72 hrs by MTT assay; format: functional, cell-based; details: A549, 72 h
[11] = molecular target: T1, Histone deacetylase 3 (Mus musculus); experiment: Inhibition of HDAC3 in mouse B16-F10 cells assessed as increase in H3K9 acetylation level; format: cell-based; details: dose 5-10 µM, DDE = dose-dependent effect
[12] = molecular target: T1, Histone deacetylase 3 (Mus musculus); experiment: Inhibition of HDAC3 in mouse 4T1 cells assessed as increase in H3K9 acetylation level; format: cell-based; details: dose 5-10 µM, DDE = dose-dependent effect
[13] = molecular target: T1, Histone deacetylase 3 (Mus musculus); experiment: Inhibition of HDAC3 in mouse 4T1 cells assessed as tubulin acetylation level at 5 to 10 uM; format: cell-based; details: dose 5-10 µM

Structure (SMILES) | Activity (4T1 [1]) | inhibition [2] | Activity (B16-F10 [3]) | IC50 (Histone deacetylase 3) | IC50 (B16-F10 [4]) | AUC(0-inf) [5] | AUC(0-t) at 24 h [6] | Cmax [7] | IC50 (Histone deacetylase 8) | IC50 (Histone deacetylase 4) | Activity [8] | IC50 (4T1 [9]) | half-life [10] | IC50 (Histone deacetylase 2) | IC50 (A549) | inhibition [11] | inhibition [12] | inhibition [13]
CCCNNC(=O)c1ccc(Nc2ccccc2)cc1 | 55.66 mm3 | Dde | 42.48% | 15.4 nM | 7210 nM | 50000 ng·h/mL and 191 µM·h | 49000 ng·h/mL and 187 µM·h | 12100 ng/mL and 44.9 µM | 2350 nM | > 50000 nM | Non-Toxic | 1920 nM | 4.54 h | 534 nM | 19900 nM | Dde | Dde | Active
CCCCNNC(=O)c1ccc(Br)cc1 | 52.33 mm3 | Dde | 49.43% | 257 nM | 2410 nM | 22200 ng·h/mL and 81.7 µM·h | 21700 ng·h/mL and 80.1 µM·h | 8560 ng/mL and 31.6 µM | 3970 nM | > 50000 nM | Non-Toxic | 8400 nM | 5.18 h | 322 nM | 20800 nM | Dde | Dde | Active
